Data: PMC9025560, “A Comparison of Evans Blue and 4-(p-Iodophenyl)butyryl Albumin Binding Moieties on an Integrin αvβ6 Binding Peptide” (Pharmaceutics, 2022)
Several values for one entry are separate records, joined by “and”; a condition that tells them apart may be missing. Identical values can stand only once. Like-named read-outs stand apart in the source and are kept apart here.

Columns and labels:
[1] = test system: prostate specific membrane antigen (PSMA); settings: cited from earlier work
[2] = test system: BxPC-3 xenograft tumors; assay: Biodistribution in mice bearing BxPC-3 xenograft tumors; type: in vivo; settings: 4 h p.i.; for Blood uptake / Bone uptake / Brain uptake / BxPC-3 Tumor uptake / Fecal Matter radioactivity / Gall Bladder uptake / Heart uptake / Kidneys uptake / Lg. Intestines uptake / Liver uptake / Lung uptake / Muscle uptake / Pancreas uptake / Skin uptake / Sm. Intestines uptake / Spleen uptake / Stomach uptake / Urine radioactivity: i.v.
Experimental: All animal procedures conformed to the Animal Welfare Act and were approved by the University of California, Davis Institutional Animal Care and Use Committee. Female athymic nu/nu-nude mice (6–8 weeks old) were purchased from Charles River Laboratories (Wilmington, MA, USA) and provided food and water on an ad libitum basis. BxPC-3 xenografts were implanted according to previous methods. Briefly, BxPC-3 cells were evaluated by flow cytometry to confirm integrin αvβ6 expression levels, injected subcutaneously into the left flank [5 million in 100 μL of a 1:1 mixture of serum-free RPMI and GFR Matrigel (Corning, New York, NY, USA)], and allowed to grow for approximately 3 weeks until tumors reached a diameter of 0.5–1 cm.
For biodistribution studies the [^64Cu]1–4 (3.7–5.55 MBq) in PBS (100 μL, pH 7.2) was injected intravenously (i.v.) via catheter into the tail vein. Following a conscious uptake period, the mice were anesthetized (5% isoflurane), euthanized, and dissected ([^64Cu]1 and [^64Cu]2, n = 3/radiolabeled peptide/time point; 4, 24, and 48 h p.i.; the 72 h time point was obtained from the imaging animals after the 72 h PET/CT scans; compounds [^64Cu]3 and [^64Cu]4, n = 2/radiolabeled compound at 4 h p.i.). Tissues were rapidly collected, weighed, and radioactivity measured with a γ-counter. Decay-corrected radioactivity concentrations are expressed as the percentage of injected dose per gram of tissue (% ID/g). Data are reported as mean ± standard deviation (SD) (Figure S20, S21 and S25).

[3] = parameters: method as in PMID 23236020, PMID 28094532; settings: cited from earlier work
[4] = target: T1, integrin αvβ6 (Homo sapiens, UniProt P06756+P18564); parameters: method as in PMID 34783573; settings: competitive ELISA against biotinylated LAP; read-out: IC50, integrin αvβ6 affinity; cited from earlier work
T1 construct: purchased R&D Systems
T1 sequence (P06756 31-992 limits assumed): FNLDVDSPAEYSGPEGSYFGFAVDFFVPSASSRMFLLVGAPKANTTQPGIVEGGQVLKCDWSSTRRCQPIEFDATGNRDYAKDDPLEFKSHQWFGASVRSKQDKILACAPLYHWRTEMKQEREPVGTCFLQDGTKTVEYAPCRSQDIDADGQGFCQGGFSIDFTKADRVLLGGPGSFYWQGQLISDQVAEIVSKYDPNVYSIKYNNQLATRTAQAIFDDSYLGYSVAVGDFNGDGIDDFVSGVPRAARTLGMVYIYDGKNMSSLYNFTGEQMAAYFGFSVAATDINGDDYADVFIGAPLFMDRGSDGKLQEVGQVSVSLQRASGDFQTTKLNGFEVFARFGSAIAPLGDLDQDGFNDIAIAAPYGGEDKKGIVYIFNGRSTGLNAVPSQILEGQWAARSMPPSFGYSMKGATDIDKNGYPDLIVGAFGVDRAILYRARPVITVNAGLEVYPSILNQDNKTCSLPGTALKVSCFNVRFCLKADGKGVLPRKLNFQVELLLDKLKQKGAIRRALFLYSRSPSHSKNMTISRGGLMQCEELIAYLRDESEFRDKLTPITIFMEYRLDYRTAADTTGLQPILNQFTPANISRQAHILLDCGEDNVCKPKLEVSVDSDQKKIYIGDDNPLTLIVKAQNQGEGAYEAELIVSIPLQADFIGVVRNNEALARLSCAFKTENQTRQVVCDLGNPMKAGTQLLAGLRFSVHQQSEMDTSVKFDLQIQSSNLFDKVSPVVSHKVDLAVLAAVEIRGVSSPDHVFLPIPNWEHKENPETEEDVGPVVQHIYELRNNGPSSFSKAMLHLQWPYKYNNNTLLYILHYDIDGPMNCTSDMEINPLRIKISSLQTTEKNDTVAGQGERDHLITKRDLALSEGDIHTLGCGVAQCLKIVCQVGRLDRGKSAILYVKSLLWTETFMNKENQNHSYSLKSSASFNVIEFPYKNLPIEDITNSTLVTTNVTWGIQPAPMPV
T1 sequence (P18564 22-707 limits assumed): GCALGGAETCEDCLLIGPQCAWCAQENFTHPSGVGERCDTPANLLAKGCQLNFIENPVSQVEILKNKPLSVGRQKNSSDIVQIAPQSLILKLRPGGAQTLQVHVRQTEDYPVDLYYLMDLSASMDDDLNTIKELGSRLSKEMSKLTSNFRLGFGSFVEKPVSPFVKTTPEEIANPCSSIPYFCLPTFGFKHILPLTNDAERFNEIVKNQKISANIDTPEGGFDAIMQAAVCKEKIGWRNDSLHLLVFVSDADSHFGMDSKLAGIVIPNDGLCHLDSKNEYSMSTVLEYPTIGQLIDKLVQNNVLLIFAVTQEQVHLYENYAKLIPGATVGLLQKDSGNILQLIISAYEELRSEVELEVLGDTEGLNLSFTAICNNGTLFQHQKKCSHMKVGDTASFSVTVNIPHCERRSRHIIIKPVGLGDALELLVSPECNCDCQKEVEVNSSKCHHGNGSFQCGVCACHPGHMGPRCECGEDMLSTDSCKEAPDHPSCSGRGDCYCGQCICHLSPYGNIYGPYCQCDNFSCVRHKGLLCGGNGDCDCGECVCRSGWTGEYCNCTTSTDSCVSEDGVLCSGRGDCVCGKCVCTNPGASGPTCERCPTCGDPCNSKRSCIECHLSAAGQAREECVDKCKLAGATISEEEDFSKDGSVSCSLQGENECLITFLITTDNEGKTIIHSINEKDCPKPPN

[5] = target: T1, integrin αvβ6; assay: Integrin αvβ6 affinity competitive binding ELISA against biotinylated LAP
Experimental: Affinity for the integrin αvβ6 was determined by competitive binding ELISA of [^NatCu]1 and [^NatCu]2 against biotinylated-LAP (G&P Biosciences, Santa Clara, CA, USA) as previously described to determine the half-maximum inhibitory concentration (IC50). Briefly, in a 96 well Nunc Immuno maxisorp plate, capturing anti-αv antibody (P2W7, 5 μg/mL, Abcam, MA, USA) was plated (50 μL/well) at 37 °C for 1 h, washed with PBS (3×), and blocked overnight with blocking buffer (300 μL/well, 0.5% non-fat dry milk powder (w/v), 1% Tween 20, in PBS). It was then washed with wash buffer that consisted of 2 mmol/L of Tris buffer (pH = 7.6), 150 mmol/L sodium chloride, 1 mmol/L manganese chloride, and 0.1% Tween 20 (v/v) in deionized water (3×). […] The ExtrAvidin HRP was detected with TMB One solution (50 μL/well; Promega Corp., Madison, WI, USA) for 10–15 min at room temperature. The reaction was stopped by adding 1N sulfuric acid (H2SO4, 50 μL/well; EMD, MA, USA) and the absorbance was measured in a Multiscan Ascent plate reader (Thermo Fisher, Waltham, MA, USA) at 450 nm. Half-maximal inhibitory concentration (IC50) of peptides was determined by fitting to sigmoidal dose-response model in GraphPad Prism 8.0 (GraphPad, CA, USA). […]

[6] = parameters: method as in PMID 32383076, PMID 24267053; settings: cited from earlier work
[7] = test system: human serum protein; parameters: method as in PMID 34783573; settings: either serum albumin (human); cited from earlier work
[8] = test system: BxPC-3 xenograft tumors; parameters: method as in PMID 34783573; settings: cited from earlier work
[9] = test system: mouse serum protein; parameters: method as in PMID 34783573; settings: either serum albumin (mouse); cited from earlier work
[10] = parameters: method as in PMID 26771036, PMID 26251416; settings: cited from earlier work
[11] = test system: U87MG glioblastoma tumor model; settings: cited from earlier work
[12] = parameters: method as in PMID 29653971; settings: clinical trials; cited from earlier work
[13] = test system: somatostatin receptor; settings: cited from earlier work; for Tumor accumulation: 24 h

## Cc1cc(-c2ccc(NC(=O)[C@H](CCCCNC(=O)CCN3C(=O)CC(SCC(=O)NCC4CCC(C(=O)N[C@H](Cc5ccc6ccccc6c5)C(=O)NCCCC[C@H](NC(=O)N[C@@H](CCC(=O)O)C(=O)O)C(=O)O)CC4)C3=O)NC(=O)CN3CCN(CC(=O)O)CCN(CC(=O)O)CCN(CC(=O)O)CC3)c(C)c2)ccc1N=Nc1ccc2c(S(=O)(=O)O)cc(S(=O)(=O)O)c(N)c2c1O (stereo partly shown) [EB-ABM PSMA-617]
[1]; 4 h
  Kidney accumulation: > 20 % ID/g
[1]; from 4 h to 48 h
  Tumor accumulation: 65.6–77.3 % ID/g

## Cc1cc(-c2ccc(NC(=O)CCC(=O)NCCCC[C@H](NC(=O)CN3CCN(CC(=O)O)CCN(CC(=O)O)CCN(CC(=O)O)CC3)C(N)=O)c(C)c2)ccc1N=Nc1ccc2c(S(=O)(=O)O)cc(S(=O)(=O)O)c(N)c2c1O [[^64Cu]3, [^64Cu]Cu DOTA-EB, metal not drawn]
[2]
  Tumor-Kidney ratio: 1.34 ±0.15
  Tumor-Lg Intestines ratio: 1.49 ±0.68
  Tumor-Liver ratio: 1.2–1.3
  Tumor-Sm Intestines ratio: 2.05 ±0.43
  Tumor-Stomach ratio: 2.52 ±0.58
  Blood uptake: 38.9 ± 10.4 % ID/g
  Bone uptake: 4.81 ± 0.79 % ID/g
  Brain uptake: 0.97 ± 0.19 % ID/g
  BxPC-3 Tumor uptake: 24.82 ± 0.90 % ID/g
  Fecal Matter radioactivity: 33.79 ± 0.90 % ID/g
  Gall Bladder uptake: 28.57 ± 10.67 % ID/g
  Heart uptake: 12.05 ± 2.69 % ID/g
  Kidneys uptake: 18.6 ± 1.4 % ID/g
  Lg. Intestines uptake: 12.75 ± 0.65 % ID/g
  Liver uptake: 22.01 ± 4.74 % ID/g
  Lung uptake: 19.40 ± 1.33 % ID/g
  Muscle uptake: 4.64 ± 1.40 % ID/g
  Pancreas uptake: 6.40 ± 1.03 % ID/g
  Skin uptake: 14.77 ± 1.82 % ID/g
  Sm. Intestines uptake: 12.45 ± 3.06 % ID/g
  Spleen uptake: 8.10 ± 1.19 % ID/g
  Stomach uptake: 10.16 ± 2.71 % ID/g
  Urine radioactivity: 63.25 ± 27.58 % ID/g
[2]; listed as [64Cu]3
  Blood uptake: 38.88 ± 10.37 % ID/g
  Kidneys uptake: 18.59 ± 1.41 % ID/g
  Tumor-Blood ratio: 0.66 ±0.15
  Tumor-Liver ratio: 1.15 ±0.21
  Tumor-Muscle ratio: 5.58 ±1.49

## NC(=O)[C@H](CCCCNC(=O)[C@H](CC(=O)O)NC(=O)CCCNC(=O)CCCc1ccc(I)cc1)NC(=O)CN1CCN(CC(=O)O)CCN(CC(=O)O)CCN(CC(=O)O)CC1 [[^64Cu]4, [^64Cu]Cu DOTA-IP, metal not drawn]
[2]
  Tumor-Kidney ratio: 1.83 ±0.19
  Tumor-Lg Intestines ratio: 2.83 ±0.36
  Tumor-Liver ratio: 1.2–1.3
  Tumor-Sm Intestines ratio: 2.31 ±0.27
  Tumor-Stomach ratio: 3.31 ±0.37
  Blood uptake: 9.5 ± 1.3 % ID/g
  Bone uptake: 1.19 ± 0.06 % ID/g
  Brain uptake: 0.36 ± 0.05 % ID/g
  BxPC-3 Tumor uptake: 7.99 ± 1.93 % ID/g
  Fecal Matter radioactivity: 2.54 ± 1.41 % ID/g
  Gall Bladder uptake: 10.23 ± 3.01 % ID/g
  Heart uptake: 3.07 ± 0.01 % ID/g
  Kidneys uptake: 4.34 ± 0.61 % ID/g and 4.3 % ID/g
  Lg. Intestines uptake: 2.90 ± 1.05 % ID/g
  Liver uptake: 6.21 ± 1.51 % ID/g
  Lung uptake: 5.01 ± 0.69 % ID/g
  Muscle uptake: 1.28 ± 0.03 % ID/g
  Pancreas uptake: 1.50 ± 0.09 % ID/g
  Skin uptake: 4.38 ± 0.77 % ID/g
  Sm. Intestines uptake: 3.53 ± 1.24 % ID/g
  Spleen uptake: 2.10 ±0.24 % ID/g
  Stomach uptake: 2.39 ± 0.31 % ID/g
  Urine radioactivity: 72.25 ± 35.13 % ID/g
[2]; listed as [64Cu]4
  Blood uptake: 9.51 ± 1.32 % ID/g
  Tumor-Blood ratio: 0.83 ±0.09
  Tumor-Liver ratio: 1.29 ± 0.001
  Tumor-Muscle ratio: 6.25 ±1.37

## Nc1nc2ncc(CNc3ccc(C(=O)N[C@@H](CCC(=O)O)C(=O)O)cc3)nc2c(=O)[nH]1 [folic acid]
[3]; 4 h
  Kidney accumulation: 70 % ID/g
[3]; 24 h p.i.
  Tumor accumulation: 7 % ID/g

## O=C(O)CC[C@H](NC(=O)N[C@@H](CCCCNC(=O)[C@H](Cc1ccc2ccccc2c1)NC(=O)[C@H]1CC[C@H](CNC(=O)CN2CCN(CC(=O)O)CCN(CC(=O)O)CCN(CC(=O)O)CC2)CC1)C(=O)O)C(=O)O [non-ABM PSMA-617]
[1]; 24 h
  Tumor accumulation: 38 % ID/g

## DOTA-αvβ6-BP
[4]
  IC50: 28 ± 3 nM

## [NatCu]Cu DOTA-EB-αvβ6-BP [[^NatCu]1]
[5]
  IC50: 14 ± 2 nM

## [NatCu]Cu DOTA-IP-αvβ6-BP [[^NatCu]2]
[5]
  IC50: 19 ± 5 nM

## [^18F]AlF NOTA-IP-ABM-αvβ6-BP
[6]
  Fold lower kidney retention than [18F]AlF NOTA-A20FMDV2-peptide: > 3.5 fold

## [^64Cu]Cu DOTA-αvβ6-BP
[7]
  Binding to serum albumin: < 29%
[8]; 4 h, same BxPC-3 tumor model
  BxPC-3 Tumor uptake: 1.61 ± 0.70 % ID/g
[8]; 4 h
  Kidney accumulation: 20.37 ± 1.67 % ID/g
[8]; 48 h
  Kidney accumulation: 6.81 ± 1.36 % ID/g
[9]
  Binding to serum albumin: < 29%

## [^64Cu]Cu NOTA-EB
[10]; 4 h
  Blood accumulation: ~ 15 % ID/g
[10]; 1 d
  Blood accumulation: ~ 10 % ID/g

## [^64Cu]Cu NOTA-EB-cRGDfK
[11]
  Fold improvement in tumor accumulation vs. [64Cu]Cu NOTA-cRGDfK: > 16 fold
  Tumor accumulation: 16.6 % ID/g

## [^64Cu]Cu NOTA-cRGDfK
[11]
  Tumor accumulation: < 1.1 % ID/g

## [^177Lu]Lu DOTA-EB-TATE
[12]
  Fold increase in tumor dose delivery: 7.9 fold
[13]; 4 h
  Kidney accumulation: ~ 30 % ID/g
[13]
  Tumor accumulation: 78.8 % ID/g
[13]; 72 h
  Kidney accumulation: ~ 15 % ID/g

## [^177Lu]Lu DOTA-TATE
[13]
  Tumor accumulation: 9.3 % ID/g
